Data reported in patent US20260069606A1, “Oxidative Stress and Diabetes Treatment with Cobinamide” (The Regents of the University of California, priority 2022, published 2026).

Key:
[1] = second order; literature values; cited from earlier work
[2] = literature values; not strictly comparable with third-order constants; cited from earlier work
[3] = literature values, cited from earlier work
[4] = second order; literature values; cited from earlier work; remark: listed apart in the source
[5] = test system: H9c2 rat embryonal cardiomyocytes; assay: Mitochondrial superoxide content, MitoSOX Red fluorescence; type: cell-based; conditions: H9c2, 5 μM rotenone 30 min, drugs at 2.5 μM
Experimental: (§1) FIGS. 3A-3H. […] FIGS. 3A-3B. […] FIG. 3A. […] FIG. 3B. […] FIGS. 3C-3D. […] FIG. 3D. […] FIGS. 3E-3F. […] FIG. 3E. Representative blots are shown. […] FIG. 3F. […] FIG. 3G. […] FIG. 3H.
H9c2 cells were plated on glass cover slips in 24 well dishes, and 16 h later the medium was changed to phenol red-free DMEM supplemented with 20 mM Hepes, 0.1% fetal bovine serum, and 0.5% bovine serum albumin. […] MitoSOX Red is a dihydroethidium derivative containing triphenyl-phosphonium, which localizes it to respiring mitochondria. Its reaction with O2·^− yields 2-hydroxy-mitoethidium (2-OH-Mito-E″), whereas its reaction with other oxidative species yields mitoethidium (Mito-E^+)^67. These two oxidative derivatives have overlapping fluorescence spectra, but they can be distinguished by high performance liquid chromatography (HPLC)^68. Rotenone increased 2-OH-Mito-E^+ about two-fold, without increasing Mito-E^+. Thus, any increased fluorescence observed on treating cells with rotenone could be ascribed to an increase in 2-OH-Mito-E^+, and decreased fluorescence by an anti-oxidant in rotenone-treated cells was likely from a decrease in 2-OH-Mito-E^+.
(§2) The cells were then washed once with PBS, placed back in the DMEM experimental medium, and incubated with the indicated drugs for 30 min. At the end of the incubation period, nuclei of both the MitoSOX Red- and JC-1-treated cells were stained with […] 4′,6-diamidino-2-phenyl-indole (DAPI) for 3 min, washed once with PBS, and returned to the DMEM experimental medium. The cover slips were removed from the wells, mounted in the DMEM experimental medium, and red (MitoSOX Red and JC-1 aggregates), green (JC-1 monomers), and blue (DAPI) fluorescence intensity was assessed using a Keyence BZ-X700 fluorescence microscope at the following paired excitation/emission wavelengths, respectively: 560/630, 490/525, and 360/460 nm.
To assess if cobinamide reduces oxidative stress in cells and to compare its […] efficacy to that of cobalamin, imisopasem, and MnTBAP, several sets of experiments were performed. First, whether cobinamide reduces mitochondrial-generated O2·^− was evaluated using the fluorescent probe MitoSOX Red. H9c2 rat embryonal cardiomyocytes were treated with rotenone, an inhibitor of complex I, to increase mitochondrial O2·^−. […] Monitoring the UV-visible spectrum of cobinamide is a sensitive means to assess ligand binding^38.

D. melanogaster = assay: Survival of fruit flies during paraquat poisoning; type: in vivo; conditions: 20 mM paraquat with 0.8 mM drug in food, over 7 d
Experimental: The number of live flies was counted each day for 7 d. The experiment was repeated seven times, for a total of 70 flies per condition. The percent surviving flies was calculated; error bars represent standard deviations and are shown in one direction only for sake of clarity. […] Chi, cobinamide in Panel A and histidyl-cobinamide in Panels B-K; Imp, imisopasem; MnTP, MnTBAP; CbL, cobalamin; DNPH, 2,4-dinitrophenylhydrazine; ND, non-diabetic; D, diabetic; Veh, vehicle.
To test cobinamide in a whole animal, D. melanogaster was selected for initial studies, and oxidative stressed was increased in the files by administering paraquat in their food. Cobinamide was again compared to imisopasem, MnTBAP, and hydroxocobalamin, all administered in food.

H9c2 cells = assay: Mitochondrial membrane potential, JC-1 red to green fluorescence; type: cell-based, rat; conditions: H9c2, 5 μM rotenone 30 min, drugs at 2.5 μM
Experimental: as §1, §2
Increased mitochondrial O2·^− by rotenone would be expected to reduce the mitochondrial membrane potential (ΔΨm), due in part to activation of uncoupling proteins^39. […] Rotenone caused an almost complete loss of red fluorescence and a striking increase in green fluorescence in the cells, indicating a marked decrease in ΔΨm (FIGS. 3C-3D).

COS-7 cells = conditions: COS-7, 1 mM paraquat 3 h, 100 μM drug, counted 48 h later
Experimental: as §1
Finally, whether cobinamide could alleviate the effects of oxidative stress induced by yet another mechanism in a different cell type was tested using paraquat-treated COS-7 cells. Paraquat generates O2·^− through a redox cycling mechanism and increases both intracellular O2·^− and H2O2^42.

[6] = test system: Jun N-terminal kinase (JNK) phosphorylation in H9c2 cells; assay: H2O2-induced JNK phosphorylation, immunoblotting; type: cell-based, rat; conditions: H9c2, 100 μM H2O2 30 min, drugs at 100 μM
Source text: as §1

[7] = mouse, in vivo
Experimental: It seemed possible, therefore, that the cobinamide administered to the mice could have increased their blood pressure, since ·NO is a potent vasodilator. Because diabetes can increase blood pressure, these studies were performed on a parallel set of non-diabetic mice of the same strain and sex and using the same concentration of histidyl-cobinamide in the drinking water as in the above-described studies.

Compound | Rate constant, reaction with superoxide (O2·^−), published [1] [M⁻¹ s⁻¹] | Rate constant, reaction with hydrogen peroxide (H2O2), published [2] | Ka, binding of nitric oxide (·NO), published [3] | Oxidation in the presence of oxygen | Rate constant, reaction with peroxynitrite (ONOO^−), published [4] | Rate constant, reaction with nitric oxide (·NO), published ([3]; second order) | MitoSOX red fluorescence in rotenone-treated cells [5] | Effect on mortality of paraquat-exposed flies (D. melanogaster) | JC-1 red to green fluorescence ratio (ΔΨm) in rotenone-treated cells (H9c2 cells) | Effect on cell growth of paraquat-treated cells (COS-7 cells) | JNK phosphorylation in H2O2-treated cells [6] | Blood pressure [7]
C/C1=C2/[N-][C@H]([C@H](CC(N)=O)[C@@]2(C)CCC(=O)NC[C@H](C)OP(=O)([O-])O[C@H]2[C@@H](O)[C@@H](n3cnc4cc(C)c(C)cc43)O[C@@H]2CO)[C@]2(C)N=C(/C(C)=C3N=C(/C=C4N=C1[C@@H](CCC(N)=O)C\4(C)C)[C@@H](CCC(N)=O)[C@]\3(C)CC(N)=O)[C@@H](CCC(N)=O)[C@]2(C)CC(N)=O.[Co+2] (stereo in doubt) [Cobalamin(II)] | 3.8e+08 | 1.4 × 10^2 | Ka: 1.5 × 10^8 (51) M^−1 | rapidly oxidized back to cobalamin(III) | 3.7 × 10^5 (14) M^−1 s^−1 | – | – | – | – | – | – | –
O=C(O)c1ccc(-c2c3nc(c(-c4ccc(C(=O)O)cc4)c4ccc([n-]4)c(-c4ccc(C(=O)O)cc4)c4nc(c(-c5ccc(C(=O)O)cc5)c5ccc2[n-]5)C=C4)C=C3)cc1.[Mn+3] [MnTBAP, manganese(III)tetrakis(4-benzoicacid)porphyrin] | ~4.0 | 5.8 | – | – | ~1 × 10^5 (27) M^−1 s^−1 | No activity (28) | reduced the fluorescent signal substantially | lesser effect | modest degrees of recovery | neither imisopasem nor MnTBAP had an effect | small non-significant effects | –
histidyl-cobinamide | – | – | – | – | – | – | – | – | – | – | – | No difference in the blood pressure
